Data taken from US5573908A, “Adrenergic receptor as a proto-oncogene” (Duke University, priority 1993, dated 1996).
Numbering of substitutions follows the chain as printed. pKi: −log10 of the molar value. Several values for one entry are separate records, joined by “and”; a condition that tells them apart may be missing. Equal values may be shown once. Entries after “also recorded” stand apart in the source; their conditions may differ.

Experiments:
[1] = test system: NIH 3T3 fibroblasts transfected with ras c-DNA; experiment: Focus formation in NIH 3T3 fibroblasts transfected with ras c-DNA; assay type: cell-based; conditions: NIH 3T3 transfected with ras; 10 μM NE supplemented daily, 5% FBS (Table 1)
Method: Transfection was carried out as follows: RAT-1 fibroblasts were seeded at a density of 2×10^5 cells in Dulbecco's modified Eagle's medium (DMEM) (Gibco) containing 5% fetal bovine serum (FBS) in 100 mm dishes. Cells were grown overnight, then transfected with 10 μg of DNA (expression vector alone [pZIP-NeoSV(X)1] or containing the α1B-ADR, α1B -ADR mutant [discussed in Example 3 below] or activated Ha-ras c-DNAs) by calcium phosphate precipitation (B. Cullen, Methods Enzymol. 152, 684 (1987)). The α1B -ADR used herein was the hamster α1B -ADR described in S. Cotecchia et al., Proc. Natl. Acad. Sci. USA 85, 7159-7163 (1988). After 16 hours, the DNA precipitate was removed, the cells washed and grown for 24 hours in complete medium. Cells were split 1:5, allowed to attach overnight and then cultured in DMEM with 5% FBS alone, supplemented with 10 μM norepinephrine (NE) or G418 (300 μg/ml). […]
After transfection of plasmid DNA into RAT-1 fibroblasts, no change in phenotype or focal cell overgrowth was observed after 4 weeks in culture in the absence of added agonist (FIG. 1A). […] Agonist-induced foci represented approximately 15-25% of transfected clones with the number of G418 resistant colonies (40-60/dish) assessed in duplicate transfections. […]
FBS. The number of transformed foci were scored after 4 weeks of culture. […]
independent experiments which agreed within 25%; nd = not determined.

[2] = test system: RAT-1 fibroblast cell line derived from a single transformed focus expressing the α1B -ADR; experiment: Morphology of focus-derived RAT-1 fibroblast cell line expressing the α1B-ADR; assay type: cell-based; conditions: 10 μM NE, 36 hours, 5% FBS
[3] = biological target: T1, α1B ADR (Mesocricetus auratus, UniProt P18841); experiment: Ligand binding on membranes of RAT-1 fibroblast cell lines expressing the α1B ADR; parameters: species or system hamster; conditions: competition with 100 pM [125I] HEAT; membranes, two clones; read-out: NE Ki
T1 construct: expressed in transfected cells; host or cells: RAT-1 fibroblasts (vector pZIP-NeoSV(X)1), focus-derived, G418-selected lines
T1 sequence (P18841 1-515): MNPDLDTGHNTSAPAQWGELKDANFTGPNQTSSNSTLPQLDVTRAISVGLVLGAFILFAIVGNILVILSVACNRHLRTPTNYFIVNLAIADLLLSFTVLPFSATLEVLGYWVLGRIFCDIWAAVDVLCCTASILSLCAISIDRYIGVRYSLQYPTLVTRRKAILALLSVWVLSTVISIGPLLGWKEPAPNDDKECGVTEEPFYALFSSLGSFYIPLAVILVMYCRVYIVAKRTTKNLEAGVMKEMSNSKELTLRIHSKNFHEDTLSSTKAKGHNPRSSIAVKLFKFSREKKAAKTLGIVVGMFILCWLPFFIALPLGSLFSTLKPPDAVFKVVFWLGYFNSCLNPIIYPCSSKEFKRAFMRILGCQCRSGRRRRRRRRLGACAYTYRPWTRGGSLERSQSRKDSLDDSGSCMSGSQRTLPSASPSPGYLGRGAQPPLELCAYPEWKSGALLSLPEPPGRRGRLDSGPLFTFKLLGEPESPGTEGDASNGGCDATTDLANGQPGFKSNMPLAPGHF
Method: (§1) In Table 3, RAT-1 fibroblast cell lines transfected with expression vector alone or derived from transformed foci (α1B ADR or α1B ADR mutant) were selected with G418 (300 μg/ml). Ligand binding was performed on membranes prepared from two clones of each in accordance with known techniques (S. Cotecchia et al., Life Sci. 37, 2389 (1986)). For saturation binding analysis, [^125 ] HEAT concentrations ranged from 10 to 500 pM, nonspecific binding was determined using 1 μM prazosin; in competition experiments, the radioligand concentration was 100 pM. Ligand binding parameters were determined using computerized iterative nonlinear regression analysis (P. Munson, Methods in Enzymol. 92, 5432 (1983)). For assessment of receptor coupling to PI hydrolysis, cells were plated in 30 mm dishes, and labeled overnight with 3 μCi/ml of myo-[2-^3 II(N)]-inositol (1Ci=37 GBq; NEN Research Products) in DMEM containing 3.3% FBS in accordance with known techniques (S. Cotecchia et al., Proc. Natl. Acad. Sci. USA 87, 2896 (1990)). After 40 minute stimulation of cells with 10 μM norepinephrine (NE), inositol phosphates were extracted, and separated on AG 1-X8 anion exchange columns (BioRad Labs) in accordance with known techniques (S. Cotecchia et al., Proc. Natl. Acad. Sci. USA 87, 2896 (1990)). Total inositol phosphates were eluted with 1M ammonium formate/0.1M formic acid. Rmax indicates the percentage increase of total labeled inositol phosphates over basal levels following NE stimulation.

[4] = biological target: T2, α1B ADR mutant (Mesocricetus auratus, UniProt P18841, A293L/K290H/R288K); experiment: Ligand binding on membranes of RAT-1 fibroblast cell lines expressing the α1B ADR mutant; parameters: species or system hamster; conditions: competition with 100 pM [125I] HEAT; membranes, two clones; read-out: NE Ki
T2 construct: expressed in transfected cells; host or cells: RAT-1 fibroblasts (vector pZIP-NeoSV(X)1), focus-derived, G418-selected lines
T2 sequence (P18841 1-515 R288K/K290H/A293L): T1 sequence (P18841 1-515) with R288K, K290H, A293L
Method: as §1

[5] = biological target: T2, α1B ADR mutant; experiment: NE stimulated PI hydrolysis in RAT-1 cell lines expressing the α1B ADR mutant; assay type: cell-based, hamster
Method: as §1, with “Rmax indicates the percentage increase of total labeled inositol phosphates over basal levels following NE stimulation.” left out

NC[C@H](O)c1ccc(O)c(O)c1 [NE, norepinephrine]
Foci No. +NE [1]: 180
cellular morphology / phenotype in the presence of agonist [2]: reverted to the transformed phenotype; also recorded: agonist-dependent alteration in cellular morphology with a loss in cellular orientation and decreased adhesiveness
pKi [3]: 5.24 and 5.27
pKi [4]: 7.38 and 7.33
NE Stimulated PI Hydrolysis Rmax ([5]; 10 μM NE, 40 minute, increase of total labeled inositol phosphates over basal, two clones): 861 % increase and 954 % increase
increase in inositol phosphates induced by NE ([5]; cell lines expressing the α1B-ADR mutant): 900 to 1000%
